Source: US5399371A, “Low calorie substitute for an edible oil” (Henkel Corporation, priority 1993, dated 1995)

Assays:
[1] = test system: porcine pancreatic lipase; assay: Lipase assay: resistance to hydrolysis by porcine pancreatic lipase; format: in vitro ADME; details: pig, pH 8
Procedure: The polyglycerols in Examples III, IV, V, VI, VII, X, XI were subjected to digestion by porcine pancreatic lipase to test for resistance to hydrolysis. This test is an indicator of resistance to digestion within a mammalian digestive system.
Lipase Assay--The following materials and procedure were employed:
0.05M Tris-HCl buffered at pH=8.0 at 37° C.
60 mg porcine pancreatic lipase (Sigma Cat. No. L3126) to 5.0 ml of the above L-histidine solution.
Olive oil is used as a standard in these assays. The olive oil is from Sigma, cataloque number 01500.
1. Weigh 0.2000 grams of standard or sample into each of three 125 ml Erlenmeyer flasks.
2. To each flask add 8.0 ml of Salts solution, and 1.0 ml of the 0.05M Tris-HCl solution. Stopper each flask and place them in a shaker water bath equilibrated to 37° C. Commence agitation at 250 rpm. A New Brunswick shaker water bath was used throughout this study.
3. After the samples have equilibrated to temperature, 15-20 minutes, add 1.0 ml of enzyme to each of two flasks and 1.0 ml of histidine solution to the third flask as a blank. Stagger the addition to each flask by at least 30 seconds. The third flask in each set is the sample blank, which accounts for any free acids in the sample. Reactions should run both for 1 hour and 18 hours.
4. When reaction time has expired, add 50 ml of isopropanol to each flask. Prior to titration with 0.05-0.10N KOH in methanol, add a few drops of 1% phenolphthalein in ethanol to each flask. The exact concentration of .the potassium hydroxide solution should be standardized using KHP, potassium hydrogen phthalate. Titrate each flask to the pink endpoint and record the amount of base required to neutralize the sample. If solubility is a problem, warm sample slightly in a water bath prior to titration.
5. For olive oil, the % hydrolysis for each sample will be the mmoles KOH divided by the mmoles fatty acids available×(times) 100. An average molecular weight for olive oil of 880 g/mole can be used The corrected % hydrolysis is the % hydrolysis for the lipase-treated sample minus the % hydrolysis for the blank. For more heterogeneous samples (complex esters), the % hydrolysis can be calculated as the (AV/SAP Value)×100. The AV for each sample is (mmole KOH sample--mmole KOH blank) (56 mg KOH/mmole)/sample weight in grams. The saponification value can be determined using a method such as A.O.C.S. Official Method Cd 3-25. It is defined as the mg KOH required to saponify a gram of sample. The % hydrolysis can then be determined by taking a ratio of the measured AV after lipase treatment/SAP VALUE 100.

[2] = rat, in vivo
[3] = in vivo; cited from earlier work

Row | Substance | Percent Hydrolysis 1 hr. [1] | Percent Hydrolysis 18 hrs. [1] | % Digested in Rats [2] | absorption / hydrolysis and metabolism in rat feeding studies [3]
1 | Polyglycerol polyoleate [Example VII] | 4.2% | 7.8% | 70% | –
2 | Polyglycerol polyoleate [Example XI] | 0.5% | 5.3% | 50% | –
3 | Propoxylated polyglycerol polyoleate [Example IV] | 2.7% | 2.3% | 26% | –
4 | Propoxylated polyglycerol polytallowate [Example V] | 2.4% | 3.8% | 18% | –
5 | decaglycerol dodecaoleate | – | – | – | substantially absorbed
6 | polyglycerol polyoleate [Example III] | 2.7% | 4.4% | 52% | –
